The values that follow come from patent US7915291B2, “Hepatitis C virus inhibitors” (Bristol-Myers Squibb Company, priority 2002, dated 2011).

Structures are written as SMILES. Some results are limits rather than exact numbers.

For experiment [1], the target named is HCV NS3/4A protease complex, BMS strain (UniProt P27958, C1454S/C1711G, species not given/STRAIN_BMS). Description: Recombinant HCV NS3/4A protease complex FRET peptide assay (BMS strain). The conditions noted are these: NS3/4A BMS strain; read-out: IC50 range. Type of experiment: biochemical, HCV genotype 1a. The method, boiled down: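 Recombinant BMS-strain NS3/4A (His-tagged NS4A with three-lysine tail, E. coli) at 2-3 nM preincubated 1 min with compound, then 2 μM ester-linked NS4A/NS4B-based FRET peptide added. Fluorescence followed in real time ~15 min at 25° C. Percent inhibition from slope of linear fluorescence change versus no-compound control.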

Experiment [2] concerns HCV replicon in Huh7 cells. The experiment in a line: HCV replicon cell-based assay. Also on record: species or system HCV strain 1B. The following applies: Hepatitis C virus, Huh-7; HCV replicon, Huh7 cells; read-out: EC50 range.

With `C=CC1C[C@]1(NC(=O)[C@@H]1C[C@@H](Oc2nnc(-n3ccnc3)c3ccccc23)CN1C(=O)[C@@H](N)C(C)(C)C)C(=O)NS(=O)(=O)C1CC1` (stereo partly drawn) [Compound 197, NH2—P3(L-tert-BuGly)-P2[(4R)-(4-(imidazo-1-yl)phthalazine-1-oxo)-S-proline]-P1(1R,2S Vinyl Acca)-CONHSO2-Cyclopropane], the IC50 in experiment [1] lay in the range of 100 to 1000 nM. In experiment [2], the EC50 fell in the range of 10000 to 100000 nM.
As to `C=C[C@@H]1C[C@]1(NC(=O)[C@@H]1C[C@@H](Oc2nccc3cc(OC)ccc23)CN1C(=O)[C@@H](NC(=O)OC(C)(C)C)C1CCCC1)C(=O)NS(=O)(=O)C1CC1` [Compound 149], in experiment [1], the IC50 was less than 100 nM. Besides, the EC50 in experiment [2] was less than 100 nM.
For `C=CCCCCC[C@H](NC(=O)OC(C)(C)C)C(=O)N1C[C@H](Oc2ccnc3cc(OC)ccc23)C[C@H]1C(=O)N[C@]1(C(=O)NS(=O)(=O)C2CC2)C[C@H]1C=C` [Compound 377], in experiment [1], the IC50 was less than 100 nM. Also, in experiment [2], the EC50 lay in the range of 100 to 1000 nM.
For the compound `C=C[C@@H]1C[C@]1(NC(=O)[C@@H]1C[C@@H](Oc2ccnc3ccccc23)CN1C(=O)[C@@H](NC(=O)OC(C)(C)C)C(C)(C)C)C(=O)NS(C)(=O)=O` [Compound 386], the IC50 in experiment [1] was in the range of 100 to 1000 nM. The EC50 in experiment [2] fell in the range of 1000 to 10000 nM.
For `C=C[C@@H]1C[C@]1(NC(=O)[C@@H]1CC(Oc2nc(-c3ccccc3)cc3ccccc23)CN1C(=O)[C@@H](NC(=O)OC(C)(C)C)[C@H](C)OCC)C(=O)NS(=O)(=O)C1CC1` (stereo partly drawn) [Compound 109], in that order: less than 100 nM and less than 100 nM.
For `C=C[C@@H]1C[C@]1(NC(=O)[C@@H]1C[C@@H](Nc2nc(-c3ccccc3)cs2)CN1C(=O)[C@@H](NC(=O)OC(C)(C)C)C(C)(C)C)C(=O)NS(=O)(=O)C1CC1` [Compound 53], the IC50 in experiment [1] fell in the range of 100 to 1000 nM. Further, the concentration for a half-maximal effect (EC50) in experiment [2] is 1000 to 10000 nM.
In the same order, the values of `C=CC1C[C@]1(NC(=O)[C@@H]1C[C@@H](Oc2nnc(OC(C)C)c3ccccc23)CN1C(=O)[C@@H](NC(=O)OC(C)(C)C)C(C)(C)C)C(=O)NS(=O)(=O)C1CC1` (stereo partly drawn) [Compound 199] are less than 100 nM and 100 to 1000 nM.
Turning to `C=C[C@@H]1C[C@]1(NC(=O)[C@@H]1C[C@@H](Oc2nccc3c2ccc2ccoc23)CN1C(=O)[C@@H](NC(=O)OC(C)(C)C)C(C)(C)C)C(=O)NS(=O)(=O)C1CC1` [Compound 266], the IC50 in experiment [1] was less than 100 nM. Further, the EC50 in experiment [2] was less than 100 nM.
As to `C=CC1C[C@]1(NC(=O)[C@@H]1C[C@@H](Oc2nnc(-n3ccnc3)c3ccccc23)CN1C(=O)[C@@H](NC(=O)OC(C)(C)C)C(C)(C)C)C(=O)NS(=O)(=O)C1CC1` (stereo partly drawn) [Compound 196, BOCNH-P3(L-tert-BuGly)-P2[(4R)-(4-(imidazo-1-yl)phthalazine-1-oxo)-S-proline]-P1(1R,2S Vinyl Acca)-CONHSO2-Cyclopropane], the IC50 in experiment [1] is less than 100 nM. Also, the EC50 in experiment [2] was in the range of 1000 to 10000 nM.
For `C=C[C@@H]1C[C@]1(NC(=O)[C@@H]1C[C@@H](Oc2nc(-c3ccc(N(C)C)cc3)cc3ccccc23)CN1C(=O)[C@@H](NC(=O)OC(C)(C)C)C(C)(C)C)C(=O)NS(=O)(=O)C1CC1` [Compound 28], in that order: less than 100 nM and less than 100 nM.
For `C=CC1C[C@]1(NC(=O)[C@@H]1C[C@@H](Oc2cc3c(Cl)nccc3c3c2OCO3)CN1C(=O)[C@@H](NC(=O)OC(C)(C)C)C(C)(C)C)C(=O)NS(=O)(=O)C1CC1` (stereo partly drawn) [Compound 212, BOCNH-P3(L-t-BuGly)-P2[(4R)-(6-Chloro-1,3-dioxa-7aza -cyclopenta[α]naphthalen-4-oxo)-S-proline]-P1(1R,2S VinylAcca)-CONHSO2Cyclopropane], in that order: less than 100 nM and less than 100 nM.
Take `C=C[C@@H]1C[C@]1(NC(=O)[C@@H]1C[C@@H](Oc2nccc3cc(OC)ccc23)CN1C(=O)[C@@H](NC(=O)OC(C)(C)C)c1ccccc1)C(=O)NS(=O)(=O)C1CC1` [Compound 134]: the IC50 in experiment [1] is less than 100 nM. Also, in experiment [2], the EC50 fell in the range of 100 to 1000 nM.
Regarding `C=C[C@@H]1C[C@]1(NC(=O)[C@@H]1C[C@@H](Oc2nccc3cccc(C)c23)CN1C(=O)[C@@H](NC(=O)OC(C)(C)C)C(C)(C)C)C(=O)NS(=O)(=O)C1CC1` [Compound 263], in experiment [1], the IC50 fell in the range of 100 to 1000 nM. Further, the EC50 in experiment [2] lay in the range of 100 to 1000 nM.
As for `C=C[C@@H]1C[C@]1(NC(=O)[C@@H]1C[C@@H](Oc2nccc3cc(OC)ccc23)CN1C(=O)[C@@H](NC(=O)NCC(=O)OC)C(C)(C)C)C(=O)NS(=O)(=O)C1CC1` [Compound 144], in experiment [1], the IC50 is less than 100 nM. Further, the EC50 in experiment [2] is 100 to 1000 nM.
As for `C=C[C@@H]1C[C@]1(NC(=O)[C@@H]1C[C@@H](Oc2nccc3c4c(ccc23)OC(F)(F)O4)CN1C(=O)[C@@H](NC(=O)OC(C)(C)C)C(C)(C)C)C(=O)NS(=O)(=O)C1CC1` [Compound 287], in experiment [1], the IC50 is less than 100 nM. The concentration for a half-maximal effect (EC50) in experiment [2] was 100 to 1000 nM.
For `C=CC1C[C@]1(NC(=O)[C@@H]1C[C@@H](Oc2nccc3cc(C(=O)N(C)C)ccc23)CN1C(=O)[C@@H](NC(=O)OC(C)(C)C)C(C)(C)C)C(=O)NS(=O)(=O)C1CC1` (stereo partly drawn) [Compound 244, BOCNH-P3(L-t-BuGly)-P2-[(4R) -(6-carboxylic acid dimethylamideisoquinoline-1-oxo)-S-proline]-P1(1R,2S VinylAcca) -CONHSO2Cyclopropane], the IC50 in experiment [1] was less than 100 nM. Also, in experiment [2], the EC50 is 10000 to 100000 nM.
As to `C=C[C@@H]1C[C@]1(NC(=O)[C@@H]1C[C@@H](Oc2nccc3cc(OC)ccc23)CN1C(=O)[C@@H](NC(=O)OC(C)(C)C(F)(F)F)C(C)(C)C)C(=O)NS(=O)(=O)C1CC1` [Compound 155], the IC50 in experiment [1] is less than 100 nM. In addition, the EC50 in experiment [2] was less than 100 nM.
For `C=C[C@@H]1C[C@]1(NC(=O)[C@@H]1C[C@@H](Oc2ncc(Cl)c3cc(OC)ccc23)CN1C(=O)[C@@H](NC(=O)OC(C)(C)C)C(C)(C)C)C(=O)NS(=O)(=O)C1CC1` [Compound 278], the IC50 in experiment [1] was less than 100 nM. Also, the EC50 in experiment [2] is less than 100 nM.
For the compound `C=C[C@@H]1C[C@]1(NC(=O)[C@@H]1C[C@@H](Oc2nc(C)cc3ccccc23)CN1C(=O)[C@@H](NC(=O)OC(C)(C)C)C(C)(C)C)C(=O)NS(=O)(=O)C1CC1` [Compound 33], the half-maximal inhibitory concentration (IC50) in experiment [1] was less than 100 nM. The 50% effective concentration (EC50) in experiment [2] was less than 100 nM.
On to `C=CC1C[C@]1(NC(=O)[C@@H]1C[C@@H](Oc2cc(C(F)(F)F)nc3c(OC(F)(F)F)cccc23)CN1C(=O)[C@@H](NC(=O)OC(C)(C)C)C(C)(C)C)C(=O)NS(=O)(=O)C1CC1` (stereo partly drawn) [Compound 182, BOCNH-P3(L-tert-BuGly)-P2[(4R)-(2-trifluoromethyl, 8-trifluoromethoxy quinolin-4-oxo)-S-proline]-P1(1R,2S Vinyl Acca)-CONHSO2-Cyclopropane], for which, in experiment [1], the IC50 was less than 100 nM. In addition, the EC50 in experiment [2] was in the range of 100 to 1000 nM.
For `C=CC1C[C@]1(NC(=O)[C@@H]1C[C@@H](Oc2nccc3occc23)CN1C(=O)[C@@H](NC(=O)OC(C)(C)C)C(C)(C)C)C(=O)NS(=O)(=O)C1CC1` (stereo partly drawn) [Compound 233], in experiment [1], the IC50 lay in the range of 100 to 1000 nM. Further, in experiment [2], the EC50 is 100 to 1000 nM.
Turning to `C=CC1C[C@]1(NC(=O)[C@@H]1C[C@@H](Oc2nc3c(c4ccccc24)OCC3)CN1C(=O)[C@@H](NC(=O)OC(C)(C)C)C(C)(C)C)C(=O)NS(=O)(=O)C1CC1` (stereo partly drawn) [Compound 219, BOCNH-P3(L-t-BuGly)-P2[(4R)-(2,3-dihydro-1-oxa-4aza -cyclopenta[α]naphthalen-5-yloxy)-S-proline]-P1(1R,2S VinylAcca)-CONHSO2Cyclopropane], the IC50 in experiment [1] is less than 100 nM. Also, in experiment [2], the EC50 is less than 100 nM.
For `C=C[C@@H]1C[C@]1(NC(=O)[C@@H]1C[C@@H](Oc2nc(-c3ccncc3)cc3ccccc23)CN1C(=O)[C@@H](NC(=O)OC(C)(C)C)C(C)(C)C)C(=O)NS(=O)(=O)C1CC1` [Compound 27], the IC50 in experiment [1] was less than 100 nM. For the same compound, in experiment [2], the EC50 was less than 100 nM.
As for `C=C[C@@H]1C[C@]1(NC(=O)[C@@H]1C[C@@H](Oc2nc(-c3cc(OC)no3)cc3cc(OC)ccc23)CN1C(=O)[C@@H](NC(=O)OC(C)(C)C)C(C)(C)C)C(=O)NS(=O)(=O)C1CC1` [Compound 38], the IC50 in experiment [1] is less than 100 nM. For the same compound, the concentration for a half-maximal effect (EC50) in experiment [2] was less than 100 nM.
Take `CC[C@@H]1C[C@]1(NC(=O)[C@@H]1C[C@@H](Oc2nccc3c4c(ccc23)OC(F)(F)O4)CN1C(=O)[C@@H](NC(=O)OC(C)(C)C)C(C)(C)C)C(=O)NS(=O)(=O)C1CC1` [Compound 289]: the IC50 in experiment [1] is less than 100 nM. The EC50 in experiment [2] is 100 to 1000 nM.
On to `C=CC1C[C@]1(NC(=O)[C@@H]1C[C@@H](Oc2nc(-c3ccccn3)cc3cc(OC)ccc23)CN1C(=O)[C@@H](NC(=O)OC(C)(C)C)C(C)(C)C)C(=O)NS(=O)(=O)C1CC1` (stereo partly drawn) [Compound 320], for which the IC50 in experiment [1] was less than 100 nM. For the same compound, the EC50 in experiment [2] was less than 100 nM.
In the case of `C=C[C@@H]1C[C@]1(NC(=O)[C@@H]1CC(Oc2nc(-c3ccccc3)cc3ccccc23)CN1C(=O)[C@@H](NC(=O)OC(C)(C)C)[C@H](C)OC)C(=O)NS(=O)(=O)C1CC1` (stereo partly drawn) [Compound 108], the IC50 in experiment [1] was less than 100 nM. For the same compound, the 50% effective concentration (EC50) in experiment [2] is less than 100 nM.
In the case of `C=C[C@@H]1C[C@]1(NC(=O)[C@@H]1C[C@@H](Oc2nccc3cc(OC)ccc23)CN1C(=O)[C@@H](NC(=O)OC1(C)CCCC1)C(C)(C)C)C(=O)NS(=O)(=O)C1CCC1` [Compound 384], in experiment [1], the IC50 is less than 100 nM. Moreover, the concentration for a half-maximal effect (EC50) in experiment [2] is less than 100 nM.
Take `C=CC1C[C@]1(NC(=O)[C@@H]1C[C@@H](Oc2ccc3nccc(Cl)c3c2)CN1C(=O)[C@@H](NC(=O)OC(C)(C)C)C(C)(C)C)C(=O)NS(=O)(=O)C1CC1` (stereo partly drawn) [Compound 240, BOCNH-P3(L-t-BuGly)-P2[(4R)-(4-chloroquinoline-6-oxo)-S -proline]-P1(1R,2S VinylAcca)-CONHSO2Cyclopropane]: the IC50 in experiment [1] was less than 100 nM. In experiment [2], the EC50 was less than 100 nM.
For the compound `CC[C@@H]1C[C@]1(NC(=O)[C@@H]1C[C@@H](Oc2ncc(OC)c3ccccc23)CN1C(=O)[C@@H](NC(=O)OC(C)(C)C)C(C)(C)C)C(=O)NS(=O)(=O)C1CC1` [Compound 291], the IC50 in experiment [1] is less than 100 nM. For the same compound, the EC50 in experiment [2] was less than 100 nM.
